Structures can show the parent of a compound that is named as a salt. Where two headings read alike, the source gives them in different places.
Experiments:
[1] = tested on: non-small cell lung carcinoma (A549) cells; test: MTT proliferation assay, NSCLC; assay type: cell-based, Human; details: Homo sapiens, Tumor Cell NSCLC (A549), 120 hours, read-out: Anti-proliferative IC-50
Description: (§1) Cells were maintained in various media as follows: A549, LoVo and PC-3 (Ham's F12K medium with 2 mM L-glutamine and 1.5 g/L sodium bicarbonate), MIA PaCa-2 (Dulbecco's modified Eagle's medium with 4 mM L-glutamine and 4.5 g/L glucose), U87-MG (MEM+Earle's BSS). Medium for each cell line was supplemented with 10% FBS and […] Penecillin/Streptomycin. All cells were grown in incubators set at 37° C., 5% CO2. Thiazolyl Blue Tetrazolium Bromide (MTT) based proliferation assays were performed to assess the anti-proliferative activities of the compounds on these cells. Cells were seeded in 96 well plates at a density of 750 cells/well 24 hours prior to compound treatment. The cells were incubated with varying concentrations of compounds for 120 hours. […] Drug treatment was performed in 5 replicate wells. Background absorbance was established by wells containing medium but no cells. Vehicle (DMSO) only was used as control. MTT (Sigma-Aldrich, St. Louis, Mo.) was added to each well at a final concentration of 0.5 mg/ml. Following a 2 hour incubation at 37° C., medium in the wells was replaced with 0.15 ml DMSO. The plates were agitated for 15 min using a microtiter plate shaker.

[2] = tested on: colon adenocarcinoma (LoVo) cells; test: MTT proliferation assay, colon; assay type: cell-based, Human; details: Homo sapiens, Tumor Cell Colon (LoVo), 120 hours, read-out: Anti-proliferative IC-50
Description: as §1

[3] = tested on: prostate adenocarcinoma (PC-3) cells; test: MTT proliferation assay, prostate; assay type: cell-based, Human; details: for IC50: Homo sapiens, Tumor Cell Prostate (PC-3), MTT, 120 hours, read-out: Anti-proliferative IC-50
Description: (§2) We used these methods to mine the known pharmacopeia for drugs with previously-unsuspected activity against cancer-related pathways. […] Hits from our cell-based screens were tested for antiproliferative activity in up to 5 different human tumor cell lines, as follows. First, drugs with significant activity in the cellular screen(s) were tested for their ability to block proliferation of a human tumor cell line (PC-3) at an initial concentration of 10 micromolar. For drugs with antiproliferative activity in PC-3 cells, dose-response curves to determine the IC50 for antiproliferative activity and additional tumor cell lines were tested to determine the breadth of activity. Methods for assessing the antiproliferative activity of the cell-based drug ‘hits’ are described below.
as §1

[4] = tested on: CDC42:PAK4 complexes; test: Protein-fragment complementation assay CDC42:PAK4; assay type: cell-based, human; details: for level of CDC42:PAK4 complexes (intensity of the fluorescence): FIG. 3F, compared with the vehicle alone
Description: (§3) To construct dynamic assays for protein-protein complexes, we used a protein-fragment complementation assay strategy (PCAs) in intact human cells. (A variety of other suitable assays, and reporter options, are described in detail below.) The principle of PCA is that complementary polypeptide fragments (F[1] and F[2]) of a reporter protein or enzyme will fold into an active form only if fused to two proteins which interact and bring the complementary fragments of the reporter protein into proximity. Reconstitution of the fragments of the reporter protein generates a fluorescent signal that can be quantified in intact cells, and the amount of the signal is proportional to the amount of the protein-protein complex used in constructing the assay. Given a suitable reporter type, the subcellular location of the complex can also be measured.
(§4) Reporter fragments for PCA were generated by oligonucleotide synthesis (Blue Heron Biotechnology, Bothell, Wash.), starting with the sequence of yellow fluorescent protein (YFP). First, oligonucleotides coding for polypeptide fragments YFP[1]and YFP[2] […] Next, PCR mutagenesis was used to generate the mutant fragments IFP[1] and IFP[2]. The IFP[1] fragment corresponds to YFP[1]-(F46L, F64L, M153T) and the IFP[2] fragment corresponds to YFP[2]-(V163A, S175G). […] The YFP[1], YFP[2], IFP[1] and IFP[2] fragments were amplified by PCR to incorporate restriction sites and a linker sequence, described below, in configurations that would allow fusion of a gene of interest to either the 5′- or 3′-end of each reporter fragment. The reporter-linker fragment cassettes were subcloned into a mammalian expression vector (pcDNA3.1Z, Invitrogen) that had been modified to incorporate the replication origin (oriP) of the Epstein Barr virus (EBV). […] Additionally, these vectors still retain the SV40 origin, allowing for episomal expression in cell lines expressing the SV40 large T antigen (e.g. HEK293T, Jurkat or COS).
(§5) PCA fusion constructs were prepared for a proteins known to participate in cellular pathways that have been described in the scientific literature as being linked to cancer. The selection of protein-protein complexes used, and the rationale for their use, is provided in Table 1 and the gene identifiers for the cDNAs used in assay construction are provided in Table 2. The full coding sequence for each gene of interest was amplified by PCR from a sequence-verified full-length cDNA. Resulting PCR products were column purified (Centricon), digested with appropriate restriction enzymes to allow directional cloning, and fused in-frame to either the 5′ or 3′-end of YFP[1], YFP[2], IFP[1] or IFP[2] through a linker encoding a flexible 10 amino acid peptide (Gly.Gly.Gly.Gly.Ser)2. […] Recombinants in the host strains DH5-alpha (Invitrogen, Carlsbad, Calif.) or XL1 Blue MR (Stratagene, La Jolla, Calif.) were screened by colony PCR, and clones containing inserts of the correct size were subjected to end sequencing to confirm the presence of the gene of interest and in-frame fusion to the appropriate reporter fragment. A subset of fusion constructs were selected for full-insert sequencing by primer walking. DNAs were isolated using Qiagen MaxiPrep kits (Qiagen, Chatsworth, Calif.). PCR was used to assess the integrity of each fusion construct, by combining the appropriate gene-specific primer with a reporter-specific primer to confirm that the correct gene-fusion was present and of the correct size with no internal deletions.
(§6) HEK293 cells were maintained in MEM alpha medium (Invitrogen) supplemented with 10% FBS (Gemini Bio-Products), 1% penicillin, and 1% streptomycin, and grown in a 37° C. incubator equilibrated to 5% CO2. […] Up to 100 ng of the complementary YFP or IFP-fragment fusion vectors were co-transfected using Fugene 6 (Roche) according to the manufacturer's protocol.

[5] = tested on: pancreatic carcinoma (MIA PaCa-2) cells; test: MTT proliferation assay, pancreatic; assay type: cell-based, Human; details: Homo sapiens, Tumor Cell Pancreatic (MIA PaCa-2), 120 hours, read-out: Anti-proliferative IC-50
Description: as §1

[6] = tested on: glioblastoma (U-87 MG) cells; test: MTT proliferation assay, glioblastoma; assay type: cell-based; details: Homo sapiens, Tumor Cell Glioblastoma (U-87 MG), 120 hours, read-out: Anti-proliferative IC-50
Description: as §1

[7] = tested on: human tumor cell lines; test: MTT proliferation assay and phase contrast images, cell line not given (FIGS. 5-10); assay type: cell-based; details: treated cells vs. DMSO control, cell line not named
Description: as §2
Cells were maintained in various media as follows: A549, LoVo and PC-3 (Ham's F12K medium with 2 mM L-glutamine and 1.5 g/L sodium bicarbonate), MIA PaCa-2 (Dulbecco's modified Eagle's medium with 4 mM L-glutamine and 4.5 g/L glucose), U87-MG (MEM+Earle's BSS). Medium for each cell line was supplemented with 10% FBS and […] Penecillin/Streptomycin. All cells were grown in incubators set at 37° C., 5% CO2. Thiazolyl Blue Tetrazolium Bromide (MTT) based proliferation assays were performed to assess the anti-proliferative activities of the compounds on these cells. Cells were seeded in 96 well plates at a density of 750 cells/well 24 hours prior to compound treatment. The cells were incubated with varying concentrations of compounds for 120 hours. Compound concentrations range from 0.03 to 100 microM (half log increments) except for alpha-Tomatine (0.001-100 microM, half log increments), Neriifolin (0.0002-100 microM) and Peruvoside (0.01-100 microM). Drug treatment was performed in 5 replicate wells. Background absorbance was established by wells containing medium but no cells. Vehicle (DMSO) only was used as control. MTT (Sigma-Aldrich, St. Louis, Mo.) was added to each well at a final concentration of 0.5 mg/ml. Following a 2 hour incubation at 37° C., medium in the wells was replaced with 0.15 ml DMSO. The plates were agitated for 15 min using a microtiter plate shaker. […] Mean absorbance values were calculated from 5 replicate wells of each drug treatment following subtraction of background absorbance from blank samples and plotted as a percentage of control.

[8] = tested on: Ras:Raf complexes; test: Protein-fragment complementation assay H-Ras:Raf; assay type: cell-based, human; details: for Assay activity: hit in Ras/Raf assay, drugs screened at 10 micromolar; for level of the Ras:Raf complexes (intensity of the fluorescence) / subcellular location of the Ras:Raf complexes: FIG. 3E; for level of the Ras:Raf complexes (intensity of the fluorescence): compared with the vehicle alone; for subcellular location of the Ras:Raf complexes: in control cells complexes localized at the cell membrane
Description: as §3, §4, §5, §6

[9] = tested on: PAK4:Cofilin; test: Protein-fragment complementation assay PAK4:Cofilin; assay type: cell-based, human; details: hit in PAK4/CFL assay; drugs screened at 10 micromolar
Description: as §3, §4, §5, §6

[10] = hit in CDC42/PAK4 assay, drugs screened at 10 micromolar

| IC50 [1] [nM] | IC50 [2] [nM] | IC50 [3] [nM] | IC50 [5] [nM] | IC50 [6] [nM] | Compound | other results |
| --- | --- | --- | --- | --- | --- | --- |
| – | 3680 | 8690 | – | 5750 | CC(C)COCC(CN(Cc1ccccc1)c1ccccc1)N1CCCC1 (stereo not drawn) [Bepridil] | level of CDC42:PAK4 complexes (intensity of the fluorescence) [4]: decrease in the level; Assay activity [4, 10]: CDC42/PAK4 |
| – | – | – | – | – | C(=C\c1ccccc1)/CN1CCN(C(c2ccccc2)c2ccccc2)CC1 [Cinnarizine] | cell count (phase contrast images) [7]: decreased the cell count |
| – | – | – | – | – | CCN(CC)CCOc1ccc(C(=C(Cl)c2ccccc2)c2ccccc2)cc1 [Clomiphene] | Assay activity [8]: Ras/Raf |
| – | 10600 | 14600 | – | 6900 | CNCCCN1c2ccccc2CCc2ccccc21 [Desipramine] | level of the Ras:Raf complexes (intensity of the fluorescence) [8]: decrease in the level; subcellular location of the Ras:Raf complexes [8]: redistribution of the complexes to an intracellular structure; Assay activity [8]: Ras/Raf |
| – | – | – | – | – | Oc1ccc(Cl)cc1Cc1cc(Cl)ccc1O [Dichlorophene] | Assay activity [8]: Ras/Raf |
| 180 | 70 | 270 | 130 | – | COC(=O)Nc1nc2ccc(C(=O)c3ccccc3)cc2[nH]1 [Mebendazole] | Assay activity [9]: PAK4/CFL |
| 5400 | 6970 | 6190 | 3350 | 4600 | CN1C[C@H](CNC(=O)OCc2ccccc2)C[C@@H]2c3cccc4c3c(cn4C)C[C@H]21 [Metergoline] | level of the Ras:Raf complexes (intensity of the fluorescence) [8]: decrease in the level; subcellular location of the Ras:Raf complexes [8]: redistribution of the complexes to an intracellular structure; level of CDC42:PAK4 complexes (intensity of the fluorescence) [4]: decrease in the level; Assay activity [4, 10]: CDC42/PAK4 |
| 13900 | 13900 | 13900 | 5130 | 16400 | CN(C)CCCN1c2ccccc2Sc2ccccc21 [Promazine] | level of the Ras:Raf complexes (intensity of the fluorescence) [8]: decrease in the level; subcellular location of the Ras:Raf complexes [8]: redistribution of the complexes to an intracellular structure; Assay activity [8]: Ras/Raf |
| 550 | 990 | – | 350 | 380 | CC(C)(C)c1ccc(C(O)CCCN2CCC(C(O)(c3ccccc3)c3ccccc3)CC2)cc1 (stereo not drawn) [Terfenadine] | cell count (phase contrast images) [7]: reduced the cell count; level of CDC42:PAK4 complexes (intensity of the fluorescence) [4]: decrease in the level; Assay activity [4, 10]: CDC42/PAK4 |
| – | – | – | – | – | Cc1cccc(Nc2cc(Cl)nc(SCC(=O)O)n2)c1C [WY-14643] | proliferation of PC-3 cells (MTT assay) ([3]; FIG. 4, compared to the DMSO control): no effect on proliferation |
| – | – | – | – | – | Clc1ccccc1C(c1ccccc1)(c1ccccc1)n1ccnc1 [clotrimazole] | cell count (phase contrast images) [7]: decreased the cell count |
| – | – | – | – | – | COC(=O)[C@H]1[C@H]2C[C@H]3c4[nH]c5cc(OC)ccc5c4CCN3C[C@H]2C[C@@H](OC(=O)c2cc(OC)c(OC)c(OC)c2)[C@@H]1OC [isoreserpine] | cell count (phase contrast images) [7]: decreased the cell count |
| – | – | – | – | – | CC/C(=C(\c1ccccc1)c1ccc(OCCN(C)C)cc1)c1ccccc1 [tamoxifen citrate] | level of the Ras:Raf complexes (intensity of the fluorescence) [8]: decrease in the level; subcellular location of the Ras:Raf complexes [8]: redistribution of the complexes to an intracellular structure |

| Compound | IC50 [1] [nM] | IC50 [2] [nM] | IC50 [3] [nM] | IC50 [5] [nM] | IC50 [6] [nM] | other results |
| --- | --- | --- | --- | --- | --- | --- |
| CCCSc1ccc2nc(NC(=O)OC)[nH]c2c1 [Albendazole] | 240 | 140 | 300 | 180 | – | Assay activity [4]: CDC42/PAK4 |
| C[n+]1cc2c3c(ccc2c2ccc4cc5c(cc4c21)OCO5)OCO3 [Sanguinarine] | 780 | 810 | 330 | 180 | 340 | – |
| C[C@H]1CC[C@]2(NC1)O[C@H]1C[C@H]3[C@@H]4CC[C@H]5C[C@@H](O[C@@H]6O[C@H](CO)[C@H](O[C@@H]7O[C@H](CO)[C@@H](O)[C@H](O[C@@H]8OC[C@@H](O)[C@H](O)[C@H]8O)[C@H]7O[C@@H]7O[C@H](CO)[C@@H](O)[C@H](O)[C@H]7O)[C@H](O)[C@H]6O)CC[C@]5(C)[C@H]4CC[C@]3(C)[C@H]1[C@@H]2C [Tomatine] | 92 | 97 | 90 | 131 | – | Assay activity [4, 10]: Cdc42/PAK4 |

Source: patent US20060094059A1, “Methods for identifying new drug leads and new therapeutic uses for known drugs” (Odyssey Thera, Inc., priority 2004, published 2006)
